From ChEMBL document CHEMBL1201862, “PubChem BioAssay data set” (2004)
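Grown in 96-well plates, cells were treated for 48 hours with each compound at five concentrations. Insufficient inhibition: endpoint recorded as highest concentration tested. The concentration for 50% growth inhibition is given as GI50.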 Active and inactive are the calls of the source. Cut-off read from the data, not from the text of the source: active = GI50 up to about 1.1 µM and inactive = higher.

How the values were obtained:
Test in all cases: NCI-60 cell line screen, 48 h
786-0 = system: 786-0
A498 = system: A498
A549 = system: A549
ACHN = system: ACHN
BT-549 = system: BT-549
CAKI-1 = system: CAKI-1
CCRF-CEM = system: CCRF-CEM
COLO 205 = system: COLO 205
DU-145 = system: DU-145
EKVX = system: EKVX
HCC 2998 = system: HCC 2998
HCT-116 = system: HCT-116
HCT-15 = system: HCT-15
HL-60 = system: HL-60
HOP-92 = system: HOP-92
HT-29 = system: HT-29
Hs-578T = system: Hs-578T
IGROV-1 = system: IGROV-1
K562 = system: K562
KM12 = system: KM12
LOX IMVI = system: LOX IMVI
M14 = system: M14
MCF7 = system: MCF7
MDA-MB-231 = system: MDA-MB-231
MDA-MB-435 = system: MDA-MB-435
MDA-N = system: MDA-N
MOLT-4 = system: MOLT-4
NCI-H226 = system: NCI-H226
NCI-H23 = system: NCI-H23
NCI-H460 = system: NCI-H460
NCI-H522 = system: NCI-H522
NCI/ADR-RES = system: NCI/ADR-RES
OVCAR-3 = system: OVCAR-3
OVCAR-4 = system: OVCAR-4
OVCAR-5 = system: OVCAR-5
OVCAR-8 = system: OVCAR-8
PC-3 = system: PC-3
RPMI-8226 = system: RPMI-8226
SF-268 = system: SF-268
SF-295 = system: SF-295
SF-539 = system: SF-539
SK-MEL-28 = system: SK-MEL-28
SK-MEL-2 = system: SK-MEL-2
SK-MEL-5 = system: SK-MEL-5
SK-OV-3 = system: SK-OV-3
SN12C = system: SN12C
SNB-19 = system: SNB-19
SR = system: SR
SW-620 = system: SW-620
TK-10 = system: TK-10
U-251 = system: U-251
UACC-257 = system: UACC-257
UACC-62 = system: UACC-62
UO-31 = system: UO-31
HOP-62 = system: HOP-62
Malme-3M = system: Malme-3M
RXF 393 = system: RXF 393
SNB-75 = system: SNB-75
T47D = system: T47D

## COc1cc(C2S/C(=C/c3ccccc3)C(=O)N2c2cccc(Cl)c2)cc(OC)c1OC (stereo not given)
786-0
  GI50: 33.3 µM (inactive)
A498
  GI50: 69.7 µM (inactive)
A549
  GI50: 78.3 µM (inactive)
ACHN
  GI50: 30.6 µM (inactive)
BT-549
  GI50: 28.6 µM (inactive)
CAKI-1
  GI50: 30.8 µM (inactive)
CCRF-CEM
  GI50: 25.6 µM (inactive)
COLO 205
  GI50: > 100 µM (inactive)
DU-145
  GI50: 23.1 µM (inactive)
EKVX
  GI50: 37.2 µM (inactive)
HCC 2998
  GI50: 46.1 µM (inactive)
HCT-116
  GI50: 36.3 µM (inactive)
HCT-15
  GI50: 34.8 µM
HL-60
  GI50: 30.9 µM (inactive)
HOP-92
  GI50: 96.4 µM (inactive)
HT-29
  GI50: 44.9 µM (inactive)
Hs-578T
  GI50: 86.7 µM (inactive)
IGROV-1
  GI50: 56.9 µM (inactive)
K562
  GI50: 21.1 µM (inactive)
KM12
  GI50: 27.4 µM (inactive)
LOX IMVI
  GI50: 21.1 µM (inactive)
M14
  GI50: 62.8 µM (inactive)
MCF7
  GI50: 34 µM (inactive)
MDA-MB-231
  GI50: > 100 µM (inactive)
MDA-MB-435
  GI50: 22.2 µM (inactive)
MDA-N
  GI50: 30.2 µM (inactive)
MOLT-4
  GI50: 22 µM (inactive)
NCI-H226
  GI50: 93.5 µM (inactive)
NCI-H23
  GI50: 94.4 µM (inactive)
NCI-H460
  GI50: 34.4 µM (inactive)
NCI-H522
  GI50: 18.2 µM (inactive)
NCI/ADR-RES
  GI50: 34.5 µM (inactive)
OVCAR-3
  GI50: 30.1 µM (inactive)
OVCAR-4
  GI50: 29.8 µM (inactive)
OVCAR-5
  GI50: > 100 µM (inactive)
OVCAR-8
  GI50: 57.8 µM (inactive)
PC-3
  GI50: 51.8 µM (inactive)
RPMI-8226
  GI50: 24.8 µM (inactive)
SF-268
  GI50: 77.1 µM (inactive)
SF-295
  GI50: 33.7 µM (inactive)
SF-539
  GI50: 31 µM (inactive)
SK-MEL-28
  GI50: 78.3 µM (inactive)
SK-MEL-2
  GI50: 62.7 µM (inactive)
SK-MEL-5
  GI50: 35.7 µM (inactive)
SK-OV-3
  GI50: > 100 µM (inactive)
SN12C
  GI50: 55.2 µM (inactive)
SNB-19
  GI50: 42.9 µM (inactive)
SR
  GI50: 19.4 µM (inactive)
SW-620
  GI50: 46 µM (inactive)
TK-10
  GI50: > 100 µM (inactive)
U-251
  GI50: 57.7 µM (inactive)
UACC-257
  GI50: 23.6 µM (inactive)
UACC-62
  GI50: 9.4 µM (inactive)
UO-31
  GI50: 23.7 µM (inactive)

## COc1ccc(C)cc1Nc1nnc(-c2ccccc2N)s1
786-0
  GI50: 51.2 µM (inactive)
A498
  GI50: 74.8 µM (inactive)
A549
  GI50: 47.4 µM (inactive)
ACHN
  GI50: 51.8 µM (inactive)
BT-549
  GI50: 62.7 µM (inactive)
CAKI-1
  GI50: 28.4 µM (inactive)
CCRF-CEM
  GI50: 32.3 µM (inactive)
COLO 205
  GI50: 36.8 µM (inactive)
DU-145
  GI50: > 100 µM (inactive)
EKVX
  GI50: 24.7 µM (inactive)
HCC 2998
  GI50: 30 µM (inactive)
HCT-116
  GI50: 37.3 µM (inactive)
HCT-15
  GI50: 45.2 µM
HL-60
  GI50: 19.5 µM (inactive)
HOP-62
  GI50: 44.7 µM (inactive)
HOP-92
  GI50: 21.3 µM (inactive)
HT-29
  GI50: 41.5 µM (inactive)
Hs-578T
  GI50: 36.2 µM (inactive)
IGROV-1
  GI50: 18 µM (inactive)
K562
  GI50: 13.7 µM (inactive)
KM12
  GI50: 28.4 µM (inactive)
LOX IMVI
  GI50: 47.1 µM (inactive)
M14
  GI50: 40.2 µM (inactive)
MCF7
  GI50: 37.8 µM (inactive)
MDA-MB-435
  GI50: 28.6 µM (inactive)
MDA-N
  GI50: 28.9 µM (inactive)
MOLT-4
  GI50: 2.41 µM (inactive)
Malme-3M
  GI50: 40.6 µM (inactive)
NCI-H226
  GI50: 43 µM (inactive)
NCI-H23
  GI50: 34.3 µM (inactive)
NCI-H460
  GI50: 31 µM (inactive)
NCI-H522
  GI50: 20.2 µM (inactive)
NCI/ADR-RES
  GI50: 34.8 µM (inactive)
OVCAR-3
  GI50: 37.5 µM (inactive)
OVCAR-4
  GI50: 26.1 µM (inactive)
OVCAR-5
  GI50: 89.9 µM (inactive)
OVCAR-8
  GI50: 35.7 µM (inactive)
PC-3
  GI50: 35 µM (inactive)
RPMI-8226
  GI50: 18.1 µM (inactive)
RXF 393
  GI50: 55.1 µM (inactive)
SF-268
  GI50: > 100 µM (inactive)
SF-295
  GI50: 34 µM (inactive)
SF-539
  GI50: 82.8 µM (inactive)
SK-MEL-28
  GI50: 53.3 µM (inactive)
SK-MEL-2
  GI50: 19.5 µM (inactive)
SK-MEL-5
  GI50: 13.7 µM (inactive)
SK-OV-3
  GI50: > 100 µM (inactive)
SN12C
  GI50: 32 µM (inactive)
SNB-19
  GI50: > 100 µM (inactive)
SNB-75
  GI50: 55 µM (inactive)
SR
  GI50: 13.4 µM (inactive)
SW-620
  GI50: 36.1 µM (inactive)
T47D
  GI50: 49.2 µM (inactive)
UACC-257
  GI50: 37.3 µM (inactive)
UACC-62
  GI50: 37.3 µM (inactive)
UO-31
  GI50: 36.8 µM (inactive)
